# According to patent US12122750B2, “AT2R antagonists and uses thereof” (Eli Lilly and Company, priority 2022, dated 2024):
# Biological target: recombinant human angiotensin-II receptor subtype 2 (hAT2R) (Homo sapiens (Human), UniProt P50052)
# Test: Competitive radioligand binding assay (SPA), hAT2R HEK293 membranes
# Conditions: [125I]-Tyr4-Angiotensin-II, read-out: AT2R Ki
# Experimental: Compound Solubilization Test and reference compounds were received as dry powder reagents, weighed, and solubilized in 100% DMSO to generate a working stock concentration of 10 mM. Membrane Preparation Protocol (hAT2R HEK293 and rAT2R HEK293) hAT2R membranes were prepared from human embryonic kidney (HEK293) cells which were stably transfected with recombinant human angiotensin-II receptor subtype 2 (hAT2R). Cells from the stable cell lines were expanded in tissue culture flasks to generate a large population of cells; cell pellet (>1 gm), and these cell pellets were stored frozen prior to initiating this membrane isolation procedure for each receptor isoform. Frozen cell pellets were thawed in ice-cold homogenization/resuspension buffer (50 mM Tris-HCl, pH 7.5) containing one Complete© protease inhibitor tablet with EDTA (Roche Diagnostics) per 50 mL buffer, and cell pellet was resuspended at a ratio of 10 mL homogenization buffer to gram of starting cell pellet. Cell suspension was homogenized with an overhead motor-driven Teflon-glass homogenizer using 15 to 20 strokes, followed by centrifugation at 1100×g for 10 minutes at 4° C. The supernatant was saved on ice, pellets were homogenized as before, and centrifuged at 1100×g for 10 minutes at 4° C. Both supernatants were combined and subsequently centrifuged at 35,000×g for 60 minutes at 4° C. The final centrifugation pellet (pellet 2) containing the isolated membranes was resuspended in buffer (4 to 5 mL/g of starting cell paste) containing protease inhibitors and quick frozen in liquid nitrogen prior to storage at -80° C. Protein concentration was determined using a BCA kit (ThermoScientific, Inc.) with bovine serum albumin (BSA) as standard. […] The assays were performed with a scintillation proximity assay (SPA) method using polyvinyltoluene (PVT) wheat germ agglutinin-coupled SPA beads (Perkin Elmer Cat. #RPNQ0001). Assay buffer containing BSA (50 mM Tris-HCl, pH 7.5, 150 mM NaCl, 0.1% w/v fatty-acid free BSA) was used for preparing radioligand, membrane and SPA bead reagent dilution to working stock concentrations. Reference control and test compounds were diluted to obtain ten-point concentration response curves using a four-fold serial dilution protocol onto assay plates, dispensed acoustically from DMSO stock using automated ECHO instrument technology (Labcyte, Inc.). Concentration response curves were routinely generated with the highest final assay concentration for the reference angiotensin-II control at 50 nM, and the highest final assay concentration for the test compounds at 50 μM. […] The hAT2R membrane was combined with PVT-WGA SPA beads to obtain a final assay concentration of 0.25 μg/well hAT2R membrane+0.1 mg/well PVT-WGA SPA bead. And the hAT1R membrane PVT-WGA SPA bead final concentrations was 0.5 μg/well hAT1R membrane+0.1 mg/well PVT-WGA SPA bead. […] For all assays, radioligand addition was followed by the addition of membrane-SPA bead mixture, i.e., the hAT2R membrane-SPA bead mixture (30 μL), the rAT2R membrane-SPA bead mixture, or the AT1R membrane-SPA bead mixture (30 μL) into the assay plate. All dispensing steps were added using a Multiflo FX (Biotek, Inc.) bulk dispensing instrument. After reagent addition steps, assay plates were sealed, and plate contents mixed for one minute on a benchtop micro-plate shaker. Following a 10-hour incubation at room temperature to allow for bead settling and radioligand binding, bound radioactivity was quantitated using a Microbeta Trilux scintillation counter (Perkin Elmer) and expressed as counts per minute (CPM). The unlabeled angiotensin-II control was included on each plate as an experimental assay reference. […] Data Analysis Procedures Compounds were tested in a 10-point concentration response curve (CRC) format, with each plate containing the positive control angiotensin-II positive reference compound, and experimental compounds.
# recombinant human angiotensin-II receptor subtype 2 (hAT2R), sequence (P50052 whole entry): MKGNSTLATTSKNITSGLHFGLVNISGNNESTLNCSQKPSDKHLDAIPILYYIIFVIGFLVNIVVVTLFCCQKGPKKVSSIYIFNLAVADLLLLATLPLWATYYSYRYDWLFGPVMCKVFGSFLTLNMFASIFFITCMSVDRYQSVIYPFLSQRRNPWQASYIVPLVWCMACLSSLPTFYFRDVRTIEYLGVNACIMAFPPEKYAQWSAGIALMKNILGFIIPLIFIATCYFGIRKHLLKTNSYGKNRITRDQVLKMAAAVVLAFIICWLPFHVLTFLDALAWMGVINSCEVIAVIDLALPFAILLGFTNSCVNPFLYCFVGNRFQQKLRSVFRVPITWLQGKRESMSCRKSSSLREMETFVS
row,Compound,Ki [nM]
1,"O=C(CC1(C(=O)O)CCN(c2ccccn2)CC1)N(c1ccccc1)C1CCCCC1 [Example 49, 4-[2-(N-cyclohexylanilino)-2-oxo-ethyl]-1-(2-pyridyl)piperidine-4-carboxylic acid]",5.21
2,"O=C(CC1(C(=O)O)CCN(c2ccccc2)CC1)N(c1ccccc1)C1CCCCC1 [Example 48, 4-[2-(N-cyclohexylanilino)-2-oxo-ethyl]-1-phenyl-piperidine-4-carboxylic acid]",3.59
3,"O=C(CC1(C(=O)O)CCN(C(=O)N(c2ccc(F)cc2)C2CC2)CC1)N(c1ccccc1)c1ccccc1F [Example 40, 1-[cyclopropyl-(4-fluorophenyl)carbamoyl]-4-[2-(N-(2-fluorophenyl)anilino)-2-oxo-ethyl]piperidine-4-carboxylic acid]",1.37
4,"CC(C(=O)N1CCC(CC(=O)N(c2ccccc2)C2CCCC(F)(F)C2)(C(=O)O)CC1)c1ccccc1F (racemic) [Example 64, 4-[2-(N-(3,3-difluorocyclohexyl)anilino)-2-oxo-ethyl]-1-[2-(2-fluorophenyl)propanoyl]piperidine-4-carboxylic acid]",1.04
5,"CC1CCCC(N(C(=O)CC2(C(=O)O)CCN(C(=O)N(C)c3ccc(F)cc3)CC2)c2ccccc2)C1 (stereo not shown) [compound 22, 1-[(4-fluorophenyl)-methyl-carbamoyl]-4-[2-(N-(3-methyl-cyclohexyl)anilino)-2-oxo-ethyl]piperidine-4-carboxylic acid]",0.573
6,"CCCCCn1c(Br)nnc1N1CCC(CC(=O)N(c2ccccc2)c2ccccc2)(C(=O)O)CC1 [Example 4, 1-(5-bromo-4-pentyl-1,2,4-triazol-3-yl)-4-[2-oxo-2-(N-phenylanilino)ethyl]piperidine-4-carboxylic acid]",5.13
7,"CN(C(=O)N1CCC(CC(=O)N(c2ccccc2)c2ccccc2F)(C(=O)O)CC1)C(C1CC1)C1CC1 [Example 55, 1-[dicyclopropylmethyl(methyl)carbamoyl]-4-[2-(N-(2-fluorophenyl)anilino)-2-oxo-ethyl]piperidine-4-carboxylic acid]",3.11
8,"O=C(c1ccc(C2CC2)cc1)N1CCC(CC(=O)N(c2ccccc2)C2CCCC(F)(F)C2)(C(=O)O)CC1 (racemic) [Example 70, 1-(4-cyclopropylbenzoyl)-4-[2-(N-(3,3-difluorocyclohexyl)anilino)-2-oxo-ethyl]piperidine-4-carboxylic acid]",9.39
9,"O=C(N1CCC(CC(=O)N(c2cccc(F)c2)c2ccccc2F)(C(=O)O)CC1)N1CCc2ccccc21 [Example 60, 4-[2-(3-fluoro-N-(2-fluorophenyl)anilino)-2-oxo-ethyl]-1-(indoline-1-carbonyl)piperidine-4-carboxylic acid]",3.18
10,"CC(C)N(C(=O)N1CCC(CC(=O)N(c2ccccc2)c2ccccc2F)(C(=O)O)CC1)c1ccc(F)cc1 [Example 38, 4-[2-(N-(2-fluorophenyl)anilino)-2-oxo-ethyl]-1-[(4-fluorophenyl)-isopropyl-carbamoyl]piperidine-4-carboxylic acid]",6.46
11,"CCC(C1CC1)N(C(=O)CC1(C(=O)O)CCN(C(=O)N(C)c2ccc(F)cc2)CC1)c1ccccc1 (racemic) [Example 17, 4-[2-[N-(1-cyclopropylpropyl)anilino]-2-oxo-ethyl]-1-[(4-fluorophenyl)-methyl-carbamoyl]piperidine-4-carboxylic acid]",5.82
12,"CN(C(=O)N1CCC(CC(=O)N(c2ccccc2)C2CCOCC2)(C(=O)O)CC1)c1ccc(C2CC2)cc1 [Example 26, 1-[(4-cyclopropylphenyl)-methyl-carbamoyl]-4-[2-oxo-2-(N-tetrahydropyran-4-ylanilino)ethyl]piperidine-4-carboxylic acid]",5.39
13,"Cc1ccc(N(C)C(=O)N2CCC(CC(=O)N(c3ccccc3)C3CCCCC3)(C(=O)O)CC2)cc1 [Example 13, 4-[2-(N-cyclohexylanilino)-2-oxo-ethyl]-1-[methyl(p-tolyl)carbamoyl]piperidine-4-carboxylic acid]",1.44
14,"O=C(N1CCC(CC(=O)N(c2ccccc2)C2CCCC(F)(F)C2)(C(=O)O)CC1)N1CCc2ccc(F)cc21 (racemic) [Example 72, 4-[2-(N-(3,3-difluorocyclohexyl)anilino)-2-oxo-ethyl]-1-(6-fluoroindoline-1-carbonyl)piperidine-4-carboxylic acid]",1.09
15,"COc1ccc(N(C)C(=O)N2CCC(CC(=O)N(c3ccccc3)C3CCCCC3)(C(=O)O)CC2)cc1 [Example 14, 4-[2-(N-cyclohexylanilino)-2-oxo-ethyl]-1-[(4-methoxyphenyl)-methyl-carbamoyl]piperidine-4-carboxylic acid]",2.58
16,"Cc1cccc(N(C(=O)CC2(C(=O)O)CCN(C(=O)N(C)c3ccc(F)cc3)CC2)c2ccccc2)c1 [compound 23, 1-[(4-fluorophenyl)-methyl-carbamoyl]-4-[2-[N-(m-tolyl)anilino]-2-oxo-ethyl]piperidine-4-carboxylic acid]",0.823

# Further compounds by falling Ki, results first:
row,Ki [nM],Compound
1,9.08,"O=C(N1CCC(CC(=O)N(c2ccccc2)C2CCCCC2)(C(=O)O)CC1)N1CCc2ccccc21 [Example 6, 4-[2-(N-cyclohexylanilino)-2-oxo-ethyl]-1-(indoline-1-carbonyl)piperidine-4-carboxylic acid]"
2,3.39,"CC(C)c1ccc(N(C(=O)CC2(C(=O)O)CCN(C(=O)N(C)c3ccc(F)cc3)CC2)c2ccccc2)cc1 [compound 28, 1-[(4-fluorophenyl)-methyl-carbamoyl]-4-[2-(N-(4-isopropylphenyl)anilino)-2-oxo-ethyl]piperidine-4-carboxylic acid]"
3,3.12,"CN(C(=O)N1CCC(CC(=O)N(c2ccccc2)C2CCCOC2)(C(=O)O)CC1)c1ccc(C2CC2)cc1 (racemic) [Example 45, 1-[(4-cyclopropylphenyl)-methyl-carbamoyl]-4-[2-oxo-2-(N-tetrahydropyran-3-ylanilino)ethyl]piperidine-4-carboxylic acid]"
4,2.82,"O=C(CC1(C(=O)O)CCN(C(=O)N(c2ccc(F)cc2)C2CC2)CC1)N(c1ccccc1)c1ccccc1 [Example 39, 1-[cyclopropyl-(4-fluorophenyl)carbamoyl]-4-[2-oxo-2-(N-phenylanilino)ethyl]piperidine-4-carboxylic acid]"
5,2.7,"COc1cccc(N(C(=O)CC2(C(=O)O)CCN(C(=O)N(C)c3ccc(F)cc3)CC2)c2ccccc2)c1 [compound 25, 1-[(4-fluorophenyl)-methyl-carbamoyl]-4-[2-(N-(3-methoxyphenyl)anilino)-2-oxo-ethyl]piperidine-4-carboxylic acid]"
6,2.62,"CN(C(=O)N1CCC(CC(=O)N(c2ccccc2)C2CCCC2)(C(=O)O)CC1)c1ccc(F)cc1 [Example 9, 4-[2-(N-cyclopentylanilino)-2-oxo-ethyl]-1-[(4-fluorophenyl)-methyl-carbamoyl]piperidine-4-carboxylic acid]"
7,2.11,"CN(C(=O)N1CCC(CC(=O)N(c2ccccc2)C2(C3CC3)CC2)(C(=O)O)CC1)c1ccc(F)cc1 [compound 20, 4-[2-(N-(1-cyclopropylcyclopropyl)anilino)-2-oxo-ethyl]-1-[(4-fluorophenyl)-methyl-carbamoyl]piperidine-4-carboxylic acid]"
8,2,"CN(C(=O)N1CCC(CC(=O)N(c2ccc(F)cc2)C2CCCC(F)(F)C2)(C(=O)O)CC1)c1ccccc1 (racemic) [Example 54, 4-[2-(N-(3,3-difluorocyclohexyl)-4-fluoro-anilino)-2-oxo-ethyl]-1-[methyl(phenyl)carbamoyl]piperidine-4-carboxylic acid]"
9,0.409,"CN(C(=O)N1CCC(CC(=O)N(c2ccccc2F)c2ccccc2F)(C(=O)O)CC1)c1ccccc1 [Example 46, 4-[2-(2-fluoro-N-(2-fluorophenyl)anilino)-2-oxo-ethyl]-1-[methyl(phenyl)carbamoyl]piperidine-4-carboxylic acid]"
